# Legend:
# [1] = system: Candida albicans; assay: Antifungal activity against Candida albicans ATCC 44859 after 24 hrs by broth microdilution method; type: functional; settings: ATCC 44859, 24 h
# [2] = system: Candida tropicalis; assay: Antifungal activity against Candida tropicalis 156 after 24 hrs by broth microdilution method; type: functional; settings: Candida tropicalis, 156, 24 h
# [3] = system: Pichia kudriavzevii; assay: Antifungal activity against Candida krusei E28 after 24 hrs by broth microdilution method; type: functional; settings: E28, 24 h
# [4] = system: Nakaseomyces glabratus; assay: Antifungal activity against Candida glabrata 20/I after 24 hrs by broth microdilution method; type: functional
# [5] = system: Trichosporon asahii; assay: Antifungal activity against Trichosporon asahii 1188 after 24 hrs by broth microdilution method; type: functional; settings: Trichosporon asahii, 1188, 24 h
# [6] = system: Aspergillus fumigatus; assay: Antifungal activity against Aspergillus fumigatus 231 after 24 hrs by broth microdilution method; type: functional, organism-based; settings: Aspergillus fumigatus, 231, 24 h
# [7] = system: Lichtheimia corymbifera; assay: Antifungal activity against Absidia corymbifera 272 after 24 hrs by broth microdilution method; type: functional, organism-based; settings: Lichtheimia corymbifera, 272, 24 h
# [8] = system: Trichophyton mentagrophytes; assay: Antifungal activity against Trichophyton mentagrophytes 445 after 72 hrs by broth microdilution method; type: functional, organism-based; settings: Trichophyton mentagrophytes, 445, 72 h
# [9] = Cytotoxicity against human HeLa cells assessed as cell viability at 30 uM after 48 hrs by MTT assay; type: cell-based; settings: read-out: Activity
# [10] = Cytotoxicity against human HuH7 cells assessed as cell viability at 30 uM after 48 hrs by MTT assay; type: cell-based, Huh-7; settings: read-out: Activity
# [11] = Cytotoxicity against human HepG2 cells assessed as cell viability at 30 uM after 48 hrs by MTT assay; type: cell-based; settings: read-out: Activity
# [12] = Cytotoxicity against MDCK2 cells assessed as cell viability at 30 uM after 48 hrs by MTT assay; type: cell-based, Canis lupus familiaris, MDCK-II; settings: dog, read-out: Activity
# [13] = system: HeLa; assay: Cytotoxicity against human HeLa cells assessed as reduction in cell viability after 48 hrs by MTT assay; type: cell-based
# [14] = Cytotoxicity against human HuH7 cells assessed as reduction in cell viability after 48 hrs by MTT assay; type: cell-based; settings: Huh-7, 48 h
# [15] = Cytotoxicity against MDCK2 cells assessed as reduction in cell viability after 48 hrs by MTT assay; type: cell-based; settings: Canis lupus familiaris, MDCK-II
# [16] = system: HepG2; assay: Cytotoxicity against human HepG2 cells assessed as reduction in cell viability after 48 hrs by MTT assay; type: cell-based; settings: HepG2, 48 h
# [17] = system: Mycobacterium tuberculosis; assay: Antimycobacterial activity against Mycobacterium tuberculosis CNCTC My 331/88 after 14 days by micromethod; type: functional; settings: CNCTC My 331/88, 336 h
# [18] = system: Mycobacterium tuberculosis; assay: Antimycobacterial activity against Mycobacterium tuberculosis CNCTC My 331/88 after 21 days by micromethod; type: functional; settings: CNCTC My 331/88, 504 h
# [19] = system: Mycobacterium avium; assay: Antimycobacterial activity against Mycobacterium avium CNCTC My 330/88 after 14 days by micromethod; type: functional; settings: CNCTC My 330/88, 336 h
# [20] = system: Mycobacterium avium; assay: Antimycobacterial activity against Mycobacterium avium CNCTC My 330/88 after 21 days by micromethod; type: functional; settings: CNCTC My 330/88, 504 h
# [21] = system: Mycobacterium kansasii; assay: Antimycobacterial activity against Mycobacterium kansasii CNCTC My 235/80 after 7 days by micromethod; type: functional; settings: CNCTC My 235/80, 168 h
# [22] = system: Mycobacterium kansasii; assay: Antimycobacterial activity against Mycobacterium kansasii CNCTC My 235/80 after 14 days by micromethod; type: functional; settings: CNCTC My 235/80, 336 h
# [23] = system: Mycobacterium kansasii; assay: Antimycobacterial activity against Mycobacterium kansasii CNCTC My 235/80 after 21 days by micromethod; type: functional; settings: CNCTC My 235/80, 504 h
# [24] = system: Mycobacterium kansasii; assay: Antimycobacterial activity against Mycobacterium kansasii 6509/96 after 7 days by micromethod; type: functional; settings: 6509/96, 168 h
# [25] = system: Mycobacterium kansasii; assay: Antimycobacterial activity against Mycobacterium kansasii 6509/96 after 14 days by micromethod; type: functional; settings: 6509/96, 336 h
# [26] = system: Mycobacterium kansasii; assay: Antimycobacterial activity against Mycobacterium kansasii 6509/96 after 21 days by micromethod; type: functional; settings: 6509/96, 504 h
# [27] = system: Escherichia coli; assay: Antibacterial activity against Escherichia coli ATCC 8739 after 24 hrs by broth microdilution method; type: functional
# [28] = system: Klebsiella pneumoniae; assay: Antibacterial activity against Klebsiella pneumoniae D 11750/08 after 24 hrs by broth microdilution method; type: functional
# [29] = system: Klebsiella pneumoniae; assay: Antibacterial activity against extended spectrum beta-lactamase producing Klebsiella pneumoniae J 14368/08 after 24 hrs by broth microdilution method; type: functional
# [30] = system: Pseudomonas aeruginosa; assay: Antibacterial activity against Pseudomonas aeruginosa ATCC 9027 after 24 hrs by broth microdilution method; type: functional
Compound,"viability at 48 h, 30 µM [9] [%]","viability at 48 h, 30 µM [10] [%]","viability at 48 h, 30 µM [11] [%]","viability at 48 h, 30 µM [12] [%]",IC50 [14] [µM],IC50 [15] [µM],IC50 [16] [µM],MIC [17] [µM],MIC [18] [µM],MIC [19] [µM],MIC [20] [µM],MIC [21] [µM],MIC [22] [µM],MIC [23] [µM],MIC [24] [µM],MIC [25] [µM],MIC [26] [µM],other results
C[C@@H]1[C@H](O)[C@@H](C)/C=C/C=C/C=C/C=C/C=C/C=C/C=C/[C@H](O[C@@H]2O[C@H](C)[C@@H](O)[C@H](N)[C@@H]2O)C[C@@H]2O[C@](O)(C[C@@H](O)C[C@@H](O)[C@H](O)CC[C@@H](O)C[C@@H](O)CC(=O)O[C@H]1C)C[C@H](O)[C@H]2C(=O)O [AMPHOTERICIN B],–,–,–,–,–,–,–,–,–,–,–,–,–,–,–,–,–,IC80 [1]: 0.54 µM; IC80 [2]: 0.54 µM; IC80 [3]: 1 µM; IC80 [4]: 0.54 µM; IC80 [5]: 0.27 µM; IC50 [6]: 0.54 µM; IC50 [7]: 1 µM; IC50 [8]: 0.54 µM
COc1ccc(-n2nnnc2[Se]Cc2cc([N+](=O)[O-])cc([N+](=O)[O-])c2)cc1,78,72,17,9,> 30,< 7.5,19,1,1,32,32,1,2,2,2,4,8,IC50 [13]: > 30 µM
O=[N+]([O-])c1cc(CS(=O)(=O)c2nnnn2C2CCCCC2)cc([N+](=O)[O-])c1,22,43,10,18,28,< 7.5,9,2,4,32,62,8,16,16,8,16,16,IC50 [13]: 21 µM
O=[N+]([O-])c1cc(C[S+]([O-])c2nnnn2C2CCCCC2)cc([N+](=O)[O-])c1 (stereo unspecified),62,84,42,52,> 30,> 30,23,8,16,125,125,4,16,62,4,16,32,IC50 [13]: > 30 µM
OC(Cn1cncn1)(Cn1cncn1)c1ccc(F)cc1F [FLUCONAZOLE],–,–,–,–,–,–,–,–,–,–,–,–,–,–,–,–,–,IC80 [1]: 0.82 µM; IC80 [2]: 1.6 µM; IC80 [3]: 105 µM; IC80 [5]: 210 µM; IC50 [6]: > 500 µM; IC50 [7]: > 500 µM; IC50 [8]: 105 µM
O=[N+]([O-])c1cc(COc2nnnn2-c2ccc(Cl)c(Cl)c2)cc([N+](=O)[O-])c1,69,111,27,22,> 30,22,25,4,4,32,62,4,16,32,4,16,32,IC50 [13]: > 30 µM
O=[N+]([O-])c1ccc(CSc2nnnn2C2CCCCC2)c([N+](=O)[O-])c1,61,97,47,28,> 30,17,16,8,16,16,32,4,8,16,16,62,62,IC50 [13]: > 30 µM
O=[N+]([O-])c1cc(CSc2nnnn2-c2ccc(Br)cc2)cc([N+](=O)[O-])c1,–,–,–,–,–,–,–,1,1,125,125,1,2,2,2,4,4,–
COC(=O)c1cccc(-n2nnnc2SCc2cc([N+](=O)[O-])cc([N+](=O)[O-])c2)c1,–,–,–,–,–,–,–,8,16,250,250,500,500,500,500,500,500,–
O=[N+]([O-])c1cc(CSc2nnnn2-c2ccccc2)cc([N+](=O)[O-])c1,–,–,–,–,–,–,–,4,4,62,62,2,4,16,2,2,4,–
COc1ccc(-n2nnnc2S(=O)(=O)Cc2cc([N+](=O)[O-])cc([N+](=O)[O-])c2)cc1,–,–,–,–,–,–,–,8,8,125,125,125,250,250,125,125,125,–
O=[N+]([O-])c1ccc(-n2nnnc2SCc2ccccc2)cc1,–,–,–,–,–,–,–,125,125,62,62,16,32,32,16,62,62,–
c1ccc(C[Se]c2nnnn2C2CCCCC2)cc1,–,–,–,–,–,–,–,125,125,125,125,8,32,32,62,250,500,–
COc1ccc(-n2nnnc2OCc2cc([N+](=O)[O-])cc([N+](=O)[O-])c2)cc1,–,–,–,–,–,–,–,2,2,16,32,4,8,16,4,16,16,–
GENTAMICIN,–,–,–,–,–,–,–,–,–,–,–,–,–,–,–,–,–,IC95 [27]: 0.26 µM; IC95 [28]: 0.26 µM; IC95 [29]: 0.26 µM; IC95 [30]: 1 µM
COc1cccc(-n2nnnc2SCc2cc([N+](=O)[O-])cc([N+](=O)[O-])c2)c1,–,–,–,–,–,–,–,2,4,125,125,125,125,125,125,125,125,–
O=[N+]([O-])c1cc(CSc2nnnn2C23CC4CC(CC(C4)C2)C3)cc([N+](=O)[O-])c1,–,–,–,–,–,–,–,4,4,500,500,4,8,16,8,8,8,–
COc1ccc(-n2nnnc2SCc2cc([N+](=O)[O-])cc([N+](=O)[O-])c2)cc1,39,86,90,123,> 30,> 30,> 30,2,4,16,32,1,4,4,1,1,2,–
